As usually defined, the melting point is the temperature of the solid-liquid transition.

Experimental findings from patent publication US20020183313A1, “1,4-benzodiazepinones and their uses as CCK antagonists” (Fujisawa Pharmaceutical Co., Ltd., priority 1996, published 2002) are described below.

Each structure is given as a SMILES string.

The molecule `CC1=NC(NC(=O)Nc2cccc(C)c2)C(=O)N(CC(=O)N(CCO)CCO)c2c(C)cccc21` (racemic) [48-3(16), N-[(3RS)-2,3-Dihydro-1-(N,N-bis-(2-hydroxyethyl)amino)-carbonylmethyl-5,9-dimethyl-2-oxo-1H-1,4-benzodiazepin-3-yl]-N′-(3-methylphenyl)urea] gave a melting point of 160.5 to 161.1 °C.

As for `Cc1ccccc1C(=O)CN1C(=O)C(NC(=O)Nc2cccc(-c3nnn[nH]3)c2)N=C(c2ccccc2F)c2cccc(C)c21` (racemic), the melting point fell in the range of 215.8 to 220.3 °C.

For the molecule `CC1=NC(NC(=O)Nc2cccc(C)c2)C(=O)N(CC(=O)N(CC(C)C)CC(C)C)c2c(C)cccc21` (racemic) [48-3(15), N-[(3 RS)-2,3-Dihydro-1-(N,N-diisobutylamino)carbonylmethyl-5,9-dimethyl-2-oxo-1H-1,4-benzodiazepin-3-yl]-N′-(3-methylphenyl)urea], the melting point was 226.9 to 228.1 °C.

Take `CC(=O)c1sccc1CN1C(=O)C(NC(=O)Nc2cccc(C)c2)N=C(CC(C)C)c2ccccc21` (racemic) [Example 6(3), N-[(3RS)-2,3-dihydro-5-(2-methylpropyl)-1-(2-methylcarbonylthiophen-3-yl)methyl-2-oxo-1,4-benzodiazepin-3-yl]-N′-(3-methylphenyl)urea]: the melting point was 215 to 218 °C.

Molecule `Cc1ccccc1C(=O)CN1C(=O)C(NC(=O)Nc2cccc(C(=O)O)c2)N=C(c2ccccc2F)c2cccc(C)c21` (racemic) came in with a melting point of 168.1 to 176.3 °C.

In turn, `CC(=O)CN1C(=O)C(NC(=O)Nc2cccc(-c3nnn[nH]3)c2)N=C(c2ccccc2F)c2cccc(C)c21` (racemic) registered a melting point of 173.5 to 189.8 °C.

`CC1=NC(NC(=O)Nc2cccc(C)c2)C(=O)N(Cc2ncccc2C)c2ccccc21` (racemic) [8(1), N-[(3RS)-2,3-dihydro-5-methyl-1-(3-methylpyridin-2-yl)methyl-2-oxo-1H-1,4-benzodiazepin-3-yl]-N′-(3-methylphenyl)urea]: the melting point lay within 225 to 229 °C.

As for `CC1=NC(NC(=O)Nc2cccc(C)c2)C(=O)N(CC(=O)C2CCCCCCC2)c2c(C)cccc21` (racemic) [Example 72, N-[(3RS)-1-Cyclooctylcarbonylmethyl-2,3-dihydro-5,9-dimethyl-2-oxo-1H-1,4-benzodiazepin-3-yl]-N′-(3-methylphenyl)urea], the melting point was in the range of 162.9 to 164.4 °C.

For the molecule `CC1=NC(NC(=O)Nc2cccc(Cl)c2)C(=O)N(CC(=O)N2CC3CCC(CC3)C2)c2c(C)cccc21` (racemic), the melting point was in the range of 181.2 to 185.1 °C.

For the molecule `Cc1cccc2c1N(CCO)C(=O)C(NC(=O)Nc1cccc(-c3nnn[nH]3)c1)N=C2C1CCCCC1` (racemic) [Example 21-2, N-[(3RS)-5-Cyclohexyl-2,3-dihydro-1-(2-hydroxyethyl)-9-methyl-2-oxo-1H-1,4-benzodiazepin-3-yl]-N′-[3-(tetrazol-5-yl)phenyl]urea], the melting point is 223.5 to 224.2 °C.

`Cc1cccc(NC(=O)NC2N=C(C3CCCCC3)c3cccc(C)c3N(C)C2=O)c1` (racemic): the melting point is 196.4 to 197.5 °C.

On to `CC(=O)CN1C(=O)C(NC(=O)Nc2cccc(C)c2)N=C(C)c2cccc(C)c21` (racemic) [Example 46, N-[(3RS)-2,3-Dihydro-5,9-dimethyl-1-methylcarbonylmethyl-2-oxo-1H-1,4-benzodiazepin-3-yl]-N′-(3-methylphenyl)urea], for which the melting point is 126.1 to 127.7 °C.

On to `Cc1cccc2c1N(CC(=O)C(C)(C)C)C(=O)C(NC(=O)Nc1cccc(-c3nnn[nH]3)c1)N=C2c1ccccc1F` (racemic), for which the melting point was 160.4 to 180.7 °C (dec.).

In the case of `Cc1cccc2c1N(CC(=O)c1ccccc1O)C(=O)C(NC(=O)Nc1cccc(-c3nnnn3C(c3ccccc3)(c3ccccc3)c3ccccc3)c1)N=C2c1ccccc1F` (racemic), the melting point fell in the range of 132.1 to 146 °C.

In turn, `Cc1cccc2c1N(C)C(=O)C(NC(=O)Nc1cccc(-c3nnn[nH]3)c1)N=C2C1CCCCC1` (racemic) [17(1), N-[(3RS)-5-Cyclohexyl-2,3-dihydro-1,9-dimethyl-2-oxo-1H-1,4-benzodiazepin-3-yl]-N′-[3-(tetrazol-5-yl)phenyl]urea] yielded a melting point of 198.9 to 200.7 °C.

`Cc1ccccc1C(=O)CN1C(=O)C(NC(=O)c2cc3ccccc3[nH]2)N=C(C2CCCCC2)c2cccc(C)c21` (racemic) [24(2), (3RS)-5-Cyclohexyl-2,3-dihydro-3-(indol-2-yl)carbonylamino-9-methyl-1-(2-methylphenacyl)-1H-1,4-benzodiazepin-2-one] gave a melting point of 126.7 to 145.2 °C.

In turn, `CC1=NC(NC(=O)Nc2cccc(C)c2)C(=O)N(CC(=O)N2CCC(N3CCCCC3)CC2)c2c(C)cccc21` (racemic) [48-3(1), N-[(3RS)-1-[4-(Piperidino)piperidin-1-yl]carbonylmethyl-5,9-dimethyl-2,3-dihydro-2-oxo-1H-1,4-benzodiazepin-3-yl]-N′-(3-methylphenyl)urea] came in with a melting point of 214.5 to 217.3 °C.

As for `Cc1cccc2c1N(CC(=O)OC(C)(C)C)C(=O)C(NC(=O)Nc1cccc(-c3nnn[nH]3)c1)N=C2c1ccccc1F` (racemic), the melting point is 151.4 to 174.2 °C (dec.).

In the case of `CCC(=O)CN1C(=O)C(NC(=O)Nc2cccc(C)c2)N=C(C)c2cccc(C)c21` (racemic) [Example 44, N-[(3RS)-2,3-Dihydro-1-ethylcarbonylmethyl-5,9-dimethyl-2-oxo-1H-1,4-benzodiazepin-3-yl]-N′-(3-methylphenyl)urea], the melting point lay in the range of 125.1 to 127.5 °C.

Take `CC(=O)N(C(C)=O)c1ccccc1C(=O)CN1C(=O)C(NC(=O)Nc2cccc(-c3nnn[nH]3)c2)N=C(c2ccccc2F)c2cccc(C)c21` (racemic): the melting point is 192 to 216.6 °C (dec.).

`COc1cccc(NC(=O)NC2N=C(C)c3cccc(C)c3N(CC(=O)N3CC4CCC(CC4)C3)C2=O)c1` (racemic): the melting point lay within 169.6 to 170.7 °C.

Regarding `Cc1cccc(NC(=O)NC2N=C(CC3CCCCC3)c3ccccc3N(CC(=O)N3CC4CCC(CC4)C3)C2=O)c1` (racemic), the melting point lay within 164 to 166 °C.

`COCC1=NC(NC(=O)Nc2cccc(C)c2)C(=O)N(CC(=O)N2CC3CCC(CC3)C2)c2c(C)cccc21` (racemic) showed a melting point of 178.1 to 182.1 °C.

Molecule `Cc1cccc(NC(=O)NC2N=C(C3CC3)c3cccc(C)c3N(CC(=O)N3CCCCCCC3)C2=O)c1` (racemic) displayed a melting point of 177.7 to 179.2 °C.

For the molecule `CC(=O)OCCN1C(=O)C(NC(=O)Nc2cccc(-c3nnn[nH]3)c2)N=C(C2CCCCC2)c2cccc(C)c21` (racemic) [Example 21-1, N-[(3RS)-1-(2-Acetoxyethyl)-5-cyclohexyl-2,3-dihydro-9-methyl-2-oxo-1H-1,4-benzodiazepin-3-yl]-N′-[3-(tetrazol-5-yl)phenyl]urea], the melting point lay within 165.2 to 168.4 °C.

`CC1=NC(NC(=O)Nc2cc(C)ccn2)C(=O)N(CC(=O)N2CC3CCC(CC3)C2)c2c(C)cccc21` (racemic): the melting point was in the range of 152 to 154.1 °C.

Take `Cc1cccc(NC(=O)NC2N=C(C(C)C)c3cccc(C)c3N(CC(=O)N3CC4CCC(CC4)C3)C2=O)c1` (racemic): the melting point fell in the range of 189.9 to 192.8 °C.

In turn, `CC(=O)c1sccc1CN1C(=O)C(NC(=O)Nc2cccc(C)c2)N=C(CCC(C)C)c2ccccc21` (racemic) [9(2), N-[(3RS)-1-(2-acetylthiophen-3-yl)methyl-2,3-dihydro-5-(3-methylbutyl)-2-oxo-1H-1,4-benzodiazepin-3-yl]-N′-(3-methylphenyl)urea] returned a melting point of 190 to 195 °C.

Take `CC1=NC(NC(=O)Nc2cccc(C)c2)C(=O)N(CC(=O)N2CCN(CCO)CC2)c2c(C)cccc21` (racemic) [48-3(14), N-[(3RS)-2,3-Dihydro-1-[4-(2-hydroxyethyl)piperazin-1-yl]carbonylmethyl-5,9-dimethyl-2-oxo-1H-1,4-benzodiazepin-3-yl]-N′-(3-methylphenyl)urea]: the melting point was in the range of 221.7 to 224.2 °C.

The molecule `Cc1cccc(NC(=O)NC2N=C(C3CCCCC3)c3cccc(C)c3N(CC(=O)N3CCCCCCC3)C2=O)c1` (racemic) [Example 70, N-[(3RS)-1-(Azacyclooctan-1-yl)carbonylmethyl-5-cyclohexyl-2,3-dihydro-9-methyl-2-oxo-1H-1,4-benzodiazepin-3-yl]-N′-(3-methylphenyl)urea] came in with a melting point of 153.6 to 155.3 °C.

As to `Cc1cccc2c1N(CC(=O)c1cccc([N+](=O)[O-])c1)C(=O)C(NC(=O)Nc1cccc(-c3nnn[nH]3)c1)N=C2c1ccccc1F` (racemic), the melting point was in the range of 194.4 to 198.1 °C.

The molecule `CC1=NC(NC(=O)Nc2cccc(C)c2)C(=O)N(CC(=O)N2CC3CCC(CC3)C2)c2c(C)cccc21` (racemic) had a melting point of 176.9 to 179.1 °C.

For `CC1=NC(NC(=O)Nc2cccc(C)n2)C(=O)N(CC(=O)N2CC3CCC(CC3)C2)c2c(C)cccc21` (racemic), the melting point was 150.8 to 152.1 °C.

As for `Cc1cccc2c1N(CC(=O)C1CC1)C(=O)C(NC(=O)Nc1cccc(-c3nnn[nH]3)c1)N=C2C1CCCCC1` (racemic) [Example 47, N-[(3RS)-5-Cyclohexyl-1-cyclopropylcarbonylmethyl-2,3-dihydro-9-methyl-2-oxo-1H-1,4-benzodiazepin-3-yl]-N′-[3-(tetrazol-5-yl)phenyl]urea], the melting point is 227.1 to 233.2 °C.

The molecule `CC(C)c1cccc2c1N(CC(=O)N1CC3CCC(CC3)C1)C(=O)C(NC(=O)Nc1cccc(-c3nnn[nH]3)c1)N=C2c1ccccc1F` (racemic) displayed a melting point of 212.2 to 222.1 °C.

Take `Cc1cccc(NC(=O)NC2N=C(CCC(C)C)c3ccccc3N(Cc3ncccc3C)C2=O)c1` (racemic) [9(1), N-[(3RS)-2,3-dihydro-5-(3-methylbutyl)-1-(3-methylpyridin-2-yl)methyl-2-oxo-1H-1,4-benzodiazepin-3-yl]-N′-(3-methylphenyl)urea]: the melting point is 151 to 154 °C.

For the molecule `CC(=O)c1sccc1CN1C(=O)C(NC(=O)Nc2cccc(C)c2)N=C(C(C)C)c2ccccc21` (racemic) [Example 2, N-[(3RS)-1-(2-acetylthiophen-3-yl)methyl-2,3-dihydro-5-isopropyl-2-oxo-1H-1,4-benzodiazepin-3-yl]-N′-(3-methylphenyl)urea], the melting point was 219 to 221 °C (dec.).
